Source: patent US20150219673A1, “THE USE OF GENE EXPRESSION PROFILING AS A BIOMARKER FOR ASSESSING THE EFFICACY OF HDAC INHIBITOR TREATMENT IN NEURODEGENERATIVE CONDITIONS” (Massachusetts Institute of Technology, priority 2012, published 2015)

Tested on: hippocampus of 5XFAD mice
Experiment: RNA sequencing of hippocampus of 5XFAD mice after chronic CI-994 treatment
Assay type: in vivo, mouse
Conditions: 5XFAD mice hippocampus
Description: To test if high-throughput genome-wide RNA sequencing can be readily used a biomarker for HDAC inhibitor-mediated treatment of cognitive decline associate with AD, a mouse model of familial AD, the SXFAD mice were used. These mice harbor point mutations in the AD-related pathogenic presenilin and amyloid precursor protein pathways, and recapitulate the majority of human AD pathologies, including amyloid-β deposition, neurodegeneration, and cognitive impairments. […] After completion of treatment, mice were sacrificed, their brain regions dissected, and total RNA extracted of the hippocampus, a brain region important for memory formation and storage. The RNA was quality controlled using Agilent's bioanalyzer 5' and 3'-end labeled and sequenced on an Illumina HiSeq sequencer with 200 million reads per sample. Sequence reads were aligned to the mouse genome, and quality-filtered. Differential analysis was then conducted using Cuffdiff with IIlumina iGenome mm9 UCSC gene annotation.

[1] = CI-994 1 mg/kg i.p. daily 1 month

CC(=O)Nc1ccc(C(=O)Nc2ccccc2N)cc1 [CI-994, 4-(acetylamino)-N-(2-aminophenyl)benzamide]
1700026L06Rik expression level [1]: 0.5624
4833427G06Rik expression level [1]: 1.156
Abhd2 expression level [1]: 16.6349
Acaa2 expression level [1]: 15.6611
Acacb expression level [1]: 0.6669
Acss3 expression level [1]: 0.8644
Adcy1 expression level [1]: 121.693
Aebp1 expression level [1]: 4.334
Aldh1a1 expression level [1]: 16.8375
Aldh2 expression level [1]: 35.3667
Als2cr4 expression level [1]: 14.5748
Angptl2 expression level [1]: 1.519
Antxr1 expression level [1]: 4.106
Apln expression level [1]: 9.121
Arc expression level [1]: 77.622
Arhgap28 expression level [1]: 0.18
Arsg expression level [1]: 13.3427
Atf4 expression level [1]: 63.7327
Atp2b3 expression level [1]: 41.3436
Atp7a expression level [1]: 1.987
Atp11c expression level [1]: 3.649
B230217C12Rik expression level [1]: 41.8821
BC049635 expression level [1]: 0.514
Baiap2l1 expression level [1]: 0.6224
Bmp6 expression level [1]: 5.713
Bmp7 expression level [1]: 2.931
Brwd3 expression level [1]: 1.786
Bst2 expression level [1]: 4.307
Btbd3 expression level [1]: 34.9585
C1ql2 expression level [1]: 39.6924
C1qtnf5 expression level [1]: 15.0312
C230081A13Rik expression level [1]: 8.241
C530008M17Rik expression level [1]: 17.1167
Cabp7 expression level [1]: 205.981
Car14 expression level [1]: 6.584
Ccdc141 expression level [1]: 2.317
Ccnd1 expression level [1]: 15.4148
Cdh3 expression level [1]: 0.3686
Cdr2 expression level [1]: 5.994
Cndp1 expression level [1]: 0.2514
Cnst expression level [1]: 10.5531
Col4a3 expression level [1]: 0.1459
Col4a4 expression level [1]: 0.1702
Col17a1 expression level [1]: 0.02351
Coro2b expression level [1]: 59.6533
Cpn1 expression level [1]: 0.2381
Cpne7 expression level [1]: 72.8282
Cpt1b expression level [1]: 0
Crtac1 expression level [1]: 33.2962
Crtap expression level [1]: 2.382
Ctnnal1 expression level [1]: 4.538
Cul4b expression level [1]: 14.4206
Cxcl14 expression level [1]: 62.1186
Dab2 expression level [1]: 2.765
Dclk3 expression level [1]: 6.883
Dcn expression level [1]: 18.2706
Dgkh expression level [1]: 8.277
Dio2 expression level [1]: 13.4167
Dmrt3 expression level [1]: 0.6692
Dnahc11 expression level [1]: 0.2181
Doc2b expression level [1]: 33.8561
Dpep1 expression level [1]: 0.1399
Dsg2 expression level [1]: 0.9993
Dsp expression level [1]: 8.258
Ephx1 expression level [1]: 17.8668
Eps8l2 expression level [1]: 1.379
F11r expression level [1]: 3.438
Fads2 expression level [1]: 8.701
Fam38a expression level [1]: 0.6613
Fam163b expression level [1]: 67.8893
Fras1 expression level [1]: 0.749
Fst expression level [1]: 1.755
Fxyd1 expression level [1]: 37.5709
Fzd4 expression level [1]: 3.613
Gabra2 expression level [1]: 45.2624
Galm expression level [1]: 1.687
Gas6 expression level [1]: 39.2248
Glb1l2 expression level [1]: 0.5483
Glul expression level [1]: 251.125
Gm221 expression level [1]: 0.499
Gm853 expression level [1]: 0
Gm11744 expression level [1]: 2.594
Gng7 expression level [1]: 64.066
Gprc5c expression level [1]: 1.254
Grm2 expression level [1]: 13.2878
Gyltl1b expression level [1]: 0.192
Hapln1 expression level [1]: 10.6547
Hbb-b2 expression level [1]: 3.714
Hemk1 expression level [1]: 4.074
Homer2 expression level [1]: 14.9404
Hsd11b1 expression level [1]: 28.1849
Hspg2 expression level [1]: 0.7372
Ifi27l1 expression level [1]: 36.0763
Igfbp5 expression level [1]: 38.2003
Igfbp7 expression level [1]: 18.1462
Igfn1 expression level [1]: 0.1271
Iqgap1 expression level [1]: 3.038
Isoc1 expression level [1]: 14.1426
Kcnj2 expression level [1]: 3.205
Kcnj10 expression level [1]: 64.1636
Kif9 expression level [1]: 1.8759
Kit expression level [1]: 18.7665
Klhdc7a expression level [1]: 4.613
Lama5 expression level [1]: 0.8869
Lamp2 expression level [1]: 40.9038
Leprel4 expression level [1]: 7.907
Lingo1 expression level [1]: 88.754
Llgl2 expression level [1]: 0.4373
Lmx1a expression level [1]: 0.5034
Loxl1 expression level [1]: 1.486
Loxl2 expression level [1]: 0.1912
Lrp5 expression level [1]: 2.432
Lrp10 expression level [1]: 14.6733
Ltc4s expression level [1]: 7.102
Lypd1 expression level [1]: 47.9728
Mccc1 expression level [1]: 5.41
Mfsd7c expression level [1]: 0.65
Mmp15 expression level [1]: 6.699
Mpp7 expression level [1]: 1.162
Myoc expression level [1]: 11.9051
Myof expression level [1]: 0.8629
Ndst4 expression level [1]: 5.129
Nek11 expression level [1]: 0.5801
Nid2 expression level [1]: 1.141
Nos1 expression level [1]: 8.7895
Npas4 expression level [1]: 3.8842
Npr1 expression level [1]: 1.7036
Nqo1 expression level [1]: 3.794
Nt5dc1 expression level [1]: 1.205
Oca2 expression level [1]: 0.467
Odz4 expression level [1]: 7.194
Ooep expression level [1]: 0.07202
Pcp4l1 expression level [1]: 50.8954
Pgcp expression level [1]: 8.02
Phactr2 expression level [1]: 6.295
Pla2g4e expression level [1]: 1.85
Plek2 expression level [1]: 0.4301
Plekha2 expression level [1]: 12.177
Pltp expression level [1]: 36.9312
Plxnb2 expression level [1]: 10.316
Polr1a expression level [1]: 5.4566
Pon1 expression level [1]: 0.12
Ppfibp2 expression level [1]: 2.53
Ppp1r1a expression level [1]: 67.7123
Ppp1r1b expression level [1]: 37.5707
Prelp expression level [1]: 9.53
Prox1 expression level [1]: 14.3616
Prps2 expression level [1]: 12.0363
Ptpn14 expression level [1]: 1.315
Rab20 expression level [1]: 1.273
Rai14 expression level [1]: 1.053
Rbp3 expression level [1]: 0.5204
Rd3 expression level [1]: 0.6656
Ripk4 expression level [1]: 0.1565
Rrh expression level [1]: 0.05235
Rsph4a expression level [1]: 2.9407
Scg5 expression level [1]: 219.826
Scn4b expression level [1]: 8.643
Scube1 expression level [1]: 4.586
Scube3 expression level [1]: 0.6281
Sdk1 expression level [1]: 0.6821
Serpinb1b expression level [1]: 0.9169
Sfrp5 expression level [1]: 0.5384
Slc4a10 expression level [1]: 46.0086
Slc5a3 expression level [1]: 5.289
Slc12a2 expression level [1]: 20.5749
Slc12a4 expression level [1]: 5.898
Slc12a7 expression level [1]: 1.124
Slc16a2 expression level [1]: 14.2113
Slc16a4 expression level [1]: 2.157
Slc16a9 expression level [1]: 1.385
Slc16a12 expression level [1]: 1.226
Slc22a6 expression level [1]: 0.7873
Slc23a2 expression level [1]: 27.4105
Slc25a39 expression level [1]: 30.7081
Slc29a4 expression level [1]: 11.9409
Slc37a2 expression level [1]: 0.8387
Slc39a4 expression level [1]: 1.073
Slco1c1 expression level [1]: 20.1851
Smpdl3a expression level [1]: 19.7502
Sod3 expression level [1]: 6.1
Spag16 expression level [1]: 0.4608
Spint2 expression level [1]: 15.9511
Sptlc3 expression level [1]: 0.2346
Ssfa2 expression level [1]: 10.0587
Stk39 expression level [1]: 28.2125
Stra6 expression level [1]: 4.817
Tbc1d1 expression level [1]: 4.993
Tbc1d2 expression level [1]: 0.8273
Tbc1d9 expression level [1]: 19.741
Tbcel expression level [1]: 17.0147
Tcn2 expression level [1]: 9.139
Tead1 expression level [1]: 4.075
Tgfbi expression level [1]: 1.202
Tgfbr3 expression level [1]: 3.88
Timp2 expression level [1]: 84.9023
Tinagl1 expression level [1]: 2.32
Tjp3 expression level [1]: 0.9513
Tlr2 expression level [1]: 1.035
Tmem27 expression level [1]: 0.3657
Tmem98 expression level [1]: 10.1715
Tmem108 expression level [1]: 8.4143
Tns1 expression level [1]: 3.868
Tspan33 expression level [1]: 15.0442
Ttc21a expression level [1]: 1.107
Vamp8 expression level [1]: 13.404
Vcam1 expression level [1]: 10.2949
Vcp expression level [1]: 1.545
Wdfy1 expression level [1]: 7.05
Wdr16 expression level [1]: 1.6294
Wfs1 expression level [1]: 43.1125
Zfp185 expression level [1]: 1.3415
Zfp605 expression level [1]: 4.398
rescue of the downregulated genes [1]: 100%
rescue of the differentially expressed genes to levels comparable to control mice (CI-994 1 mg/kg i.p. daily 1 month, FIG. 1): rescued to near completion
number of genes rescued by CI-994 treatment (FIG. 1 heatmap, significance level p<0.05): 239 genes
